Tests used:
SIRT1 [1] = molecular target: T1, SIRT1 (Homo sapiens, UniProt Q96EB6); assay: Trp mass spectrometry assay of SIRT1 deacetylase activation; type: biochemical; conditions: Trp peptide substrate; for TRP EC1.5 (μM): concentration that results in 150% activation of SIRT1; for TRP % Fold Act: percent maximum fold activation relative to control (100%)
T1 sequence (Q96EB6 1-747): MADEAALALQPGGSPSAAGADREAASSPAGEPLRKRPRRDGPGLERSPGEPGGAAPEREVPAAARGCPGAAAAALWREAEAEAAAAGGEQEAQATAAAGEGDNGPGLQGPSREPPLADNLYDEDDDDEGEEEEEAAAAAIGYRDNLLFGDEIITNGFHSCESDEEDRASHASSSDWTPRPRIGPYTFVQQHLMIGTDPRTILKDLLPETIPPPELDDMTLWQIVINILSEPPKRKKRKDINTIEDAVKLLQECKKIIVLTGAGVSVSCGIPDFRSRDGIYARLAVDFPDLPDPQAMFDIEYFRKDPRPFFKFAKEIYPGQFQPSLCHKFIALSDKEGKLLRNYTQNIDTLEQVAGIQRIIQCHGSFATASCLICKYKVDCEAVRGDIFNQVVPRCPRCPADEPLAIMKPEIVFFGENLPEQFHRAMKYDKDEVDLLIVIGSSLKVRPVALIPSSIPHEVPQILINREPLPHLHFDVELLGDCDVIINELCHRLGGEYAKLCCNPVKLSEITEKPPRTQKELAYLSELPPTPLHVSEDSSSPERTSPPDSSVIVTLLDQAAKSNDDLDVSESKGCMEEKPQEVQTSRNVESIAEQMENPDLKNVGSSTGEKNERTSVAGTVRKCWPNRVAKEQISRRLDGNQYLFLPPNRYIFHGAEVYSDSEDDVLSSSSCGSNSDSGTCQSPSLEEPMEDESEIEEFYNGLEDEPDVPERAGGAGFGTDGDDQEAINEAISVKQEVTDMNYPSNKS
Excerpt: (§1) Mass spectrometry based assays were used to identify modulators of SIRT1 activity. The TAMRA based assay utilized a peptide having 20 amino acid residues as follows: Ac-EE-K(biotin)-GQSTSSHSK(Ac)NleSTEG-K(5TMR)-EE-NH2 (SEQ ID NO: 1), wherein K(Ac) is an acetylated lysine residue and Nle is a norleucine. The peptide was labeled with the fluorophore 5TMR (excitation 540 nm/emission 580 nm) at the C-terminus. The sequence of the peptide substrate was based on p53 with several modifications. In addition, the methionine residue naturally present in the sequence was replaced with the norleucine because the methionine may be susceptible to oxidation during synthesis and purification. The Trp based assay utilized a peptide having an amino acid residues as follows: Ac-R-H-K-K(Ac)-W-NH2 (SEQ ID NO: 2).
The Trp mass spectrometry assay was conducted as follows. 0.5 μM peptide substrate and 120 μM βNAD^+ were incubated with 10 nM SIRT1 for 25 minutes at 25° C. in a reaction buffer (50 mM HEPES pH 7.5, […], 1 mM DTT, 0.05% BSA). The SIRT1 protein was obtained by cloning the SirT1 gene into a T7-promoter containing vector, which was then expressed in BL21(DE3) bacterial cells and purified as described in further detail below. Test compound was added at varying concentrations to this reaction mixture and the resulting reactions were monitored. After the 25 minute incubation with SIRT1, 10 μL of 10% formic acid was added to stop the reaction. The resulting reactions were sealed and frozen for later mass spec analysis. The relative SIRT1 activity was then determined by measuring the amount of O-acetyl-ADP-ribose (OAADPR) formed (or, alternatively, the amount of deacetylated Trp peptide generated) by the NAD-dependent sirtuin deacetylation reaction in the presence of varying concentrations of the test compound versus control reactions lacking the test compound. The degree to which the test agent activated deacetylation by SIRT1 was expressed as EC1.5 (i.e., the concentration of compound required to increase SIRT1 activity by 50% over the control lacking test compound), and Percent Maximum Activation (i.e., the maximum activity relative to control (100%) obtained for the test compound).
(§2) A control for inhibition of sirtuin activity was conducted by adding 1 μL of 500 mM nicotinamide as a negative control at the start of the reaction (e.g., permits determination of maximum sirtuin inhibition). A control for activation of sirtuin activity was conducted using 10 nM of sirtuin protein, with 1 μL of DMSO in place of compound, to determine the amount of deacetylation of the substrate at a given time point within the linear range of the assay. This time point was the same as that used for test compounds and, within the linear range, the endpoint represents a change in velocity. For the above assay, SIRT1 protein was expressed and purified as follows. The SirT1 gene was cloned into a T7-promoter containing vector and transformed into BL21(DE3). The protein was expressed by induction with 1 mM IPTG as an N-terminal His-tag fusion protein at 18° C. overnight and harvested at 30,000×g. Cells were lysed with lysozyme in lysis buffer (50 mM Tris-HCl, 2 mM Tris[2-carboxyethyl] phosphine (TCEP), 10 μM ZnCl2, 200 mM NaCl) and further treated with sonication for 10 min for complete lysis. The protein was purified over a Ni-NTA column (Amersham) and fractions containing pure protein were pooled, concentrated and run over a sizing column (Sephadex S200 26/60 global). The peak containing soluble protein was collected and run on an Ion-exchange column (MonoQ). Gradient elution (200 mM-500 mM NaCl) yielded pure protein. This protein was concentrated and dialyzed against dialysis buffer (20 mM Tris-HCl, 2 mM TCEP) overnight. The protein was aliquoted and frozen at −80° C. until further use.
Sirtuin-modulating compounds of Formula (I) that activated SIRT1 were identified using the assay described above and are shown below in Table 1. […]

SIRT1 [2] = molecular target: T1, SIRT1; assay: TAMRA based mass spectrometry assay of SIRT1 deacetylase activation; type: biochemical; conditions: TAMRA peptide substrate; for TAMRA EC1.5 (μM): concentration that results in 150% activation of SIRT1; for TAMRA % Fold Act: percent maximum fold activation relative to control (100%)
Excerpt: as §1
The TAMRA based mass spectrometry assay was conducted as follows: 0.5 μM peptide substrate and 120 μM βNAD^+ was incubated with 10 nM SIRT1 for 25 minutes at 25° C. in a reaction buffer (50 mM Tris-acetate pH 8, 137 mM NaCl, 2.7 mM KCl, 1 mM MgCl2, 5 mM DTT, 0.05% BSA). The SIRT1 protein was obtained by cloning the SirT1 gene into a T7-promoter containing vector, which was then transformed and expressed in BL21(DE3) bacterial cells. Test compound was added at varying concentrations to this reaction mixture and the resulting reactions were monitored. After the 25 minute incubation with SIRT1, 10 μL of 10% formic acid was added to stop the reaction. The resulting reactions were sealed and frozen for later mass spec analysis. Determination of the amount of deacetylated substrate peptide formed (or, alternatively, the amount of O-acetyl-ADP-ribose (OAADPR) generated) by the sirtuin-mediated NAD-dependent deacetylation reaction allowed for the precise measurement of relative SIRT1 activity in the presence of varying concentrations of the test compound versus control reactions lacking the test compound.
as §2
Sirtuin-modulating compounds of Formula (I) that activated SIRT1 were identified using the assay described above and are shown below in Table 1. The EC1.5 values represent the concentration of test compounds that result in 150% activation of SIRT1. The EC1.5 values for the activating compounds of Formula (I) are represented by A (EC1.5<1 μM), B (EC1.5 1−25 μM), C (EC1.5>25 μM). […]

Row | TRP EC1.5 (μM) (SIRT1 [1]) | TRP % Fold Act (SIRT1 [1]) | TAMRA EC1.5 (μM) (SIRT1 [2]) | TAMRA % Fold Act (SIRT1 [2]) | Structure (SMILES)
1 | C (EC1.5>25 μM) | B (Fold Activation<350%) | C (EC1.5>25 μM) | B (Fold Activation<350%) | O=C(Nc1cccc(CN2CCOCC2)n1)c1ccnc2cc(-c3cccc(C(F)(F)F)c3)nn12 [Compound 91]
2 | B (EC1.5 1−25 μM) | B (Fold Activation<350%) | A (EC1.5<1 μM) | A (Fold activation≧350%) | O=C(Nc1ccncn1)c1ccnc2cc(-c3ccccc3C(F)(F)F)nn12 [Compound 78]
3 | C (EC1.5>25 μM) | B (Fold Activation<350%) | A (EC1.5<1 μM) | B (Fold Activation<350%) | Cc1cnc(NC(=O)c2cc(N3CCOCC3)nn3cc(-c4ccccc4C(F)(F)F)nc23)s1 [Compound 43]
4 | C (EC1.5>25 μM) | B (Fold Activation<350%) | C (EC1.5>25 μM) | B (Fold Activation<350%) | O=C(Nc1ccnc2cc(-c3cccc(C(F)(F)F)c3)nn12)c1nccs1 [Compound 95]
5 | C (EC1.5>25 μM) | B (Fold Activation<350%) | C (EC1.5>25 μM) | B (Fold Activation<350%) | O=C(Nc1ccccn1)c1cc(N2CCOCC2)nn2cc(-c3ccccc3F)nc12 [Compound 39]
6 | B (EC1.5 1−25 μM) | B (Fold Activation<350%) | A (EC1.5<1 μM) | A (Fold activation≧350%) | Cc1nc(C(=O)Nc2ccnc3cc(-c4ccccc4C(F)(F)F)nn23)c(C)s1 [Compound 57]
7 | B (EC1.5 1−25 μM) | B (Fold Activation<350%) | B (EC1.5 1−25 μM) | A (Fold activation≧350%) | O=C(Nc1ccncc1)c1ccnc2cc(-c3ccccc3C(F)(F)F)nn12 [Compound 77]
8 | B (EC1.5 1−25 μM) | B (Fold Activation<350%) | A (EC1.5<1 μM) | A (Fold activation≧350%) | O=C(Nc1ccnc2cc(-c3ccccc3C(F)(F)F)nn12)c1ccccn1 [Compound 59]
9 | B (EC1.5 1−25 μM) | B (Fold Activation<350%) | B (EC1.5 1−25 μM) | A (Fold activation≧350%) | O=C(Nc1cccnc1)c1ccnc2cc(-c3ccccc3C(F)(F)F)nn12 [Compound 76]
10 | C (EC1.5>25 μM) | B (Fold Activation<350%) | B (EC1.5 1−25 μM) | A (Fold activation≧350%) | O=C(Nc1ccnc2cc(-c3ccccc3C(F)(F)F)nn12)c1cscn1 [Compound 55]
11 | B (EC1.5 1−25 μM) | B (Fold Activation<350%) | C (EC1.5>25 μM) | B (Fold Activation<350%) | O=C(Nc1ncccn1)c1ccnc2cc(-c3cccc(C(F)(F)F)c3)nn12 [Compound 101]
12 | C (EC1.5>25 μM) | B (Fold Activation<350%) | C (EC1.5>25 μM) | B (Fold Activation<350%) | Cc1cnc(C(=O)Nc2ccnc3cc(-c4ccccc4C(F)(F)F)nn23)s1 [Compound 58]
13 | C (EC1.5>25 μM) | B (Fold Activation<350%) | C (EC1.5>25 μM) | B (Fold Activation<350%) | O=C(Nc1cccnc1)c1cc(N2CCOCC2)nn2cc(-c3cccc(Cl)c3)nc12 [Compound 33]
14 | C (EC1.5>25 μM) | B (Fold Activation<350%) | C (EC1.5>25 μM) | B (Fold Activation<350%) | O=C(Nc1ccncc1)c1ccnc2cc(-c3cccc(C(F)(F)F)c3)nn12 [Compound 86]
15 | C (EC1.5>25 μM) | B (Fold Activation<350%) | C (EC1.5>25 μM) | B (Fold Activation<350%) | O=C(Nc1ccncc1)c1cc(N2CCOCC2)nn2cc(-c3cccc(Cl)c3)nc12 [Compound 54]
16 | C (EC1.5>25 μM) | B (Fold Activation<350%) | B (EC1.5 1−25 μM) | B (Fold Activation<350%) | O=C(Nc1nccs1)c1cc(N2CCOCC2)nn2cc(-c3ccccc3C(F)(F)F)nc12 [Compound 42]
17 | C (EC1.5>25 μM) | B (Fold Activation<350%) | A (EC1.5<1 μM) | B (Fold Activation<350%) | O=C(Nc1ccnc2cc(-c3ccccc3C(F)(F)F)nn12)c1cccc(N2CCOCC2)n1 [Compound 63]
18 | C (EC1.5>25 μM) | B (Fold Activation<350%) | A (EC1.5<1 μM) | A (Fold activation≧350%) | COc1cccc(C(=O)Nc2ccnc3cc(-c4ccccc4C(F)(F)F)nn23)n1 [Compound 111]
